The text below walks through data of patent US10766942B2, “Fragments of syndecan-2 having anti-angiogenic activity” (Queen Mary University of London, priority 2014, dated 2020).

For one assay, the system named is Matrigel plugs. Put plainly: Matrigel plug assay (haemoglobin content). The format is in vivo, mouse. The note with it: 50 μM incorporated in plug; C57BL6 mice; vs scrambled peptide control or PBS. The procedure: Mice were sacrificed after three days and the plugs excised, photographed and incubated overnight in PBS. Haemoglobin was quantified using Drabkin's reagent (Sigma) as described by the manufacturer. All experiments were performed under the UK legislation for the protection of animals, and at the end of all in vivo procedures involving anaesthesia, animals were humanely killed by cervical dislocation in accordance with UK Home Office regulations. Excised plugs were frozen in liquid nitrogen and subsequently embedded in ice cold OCT, 15 μm sections were made using a cryostat at −20° C. Following fixation with 4% PFA for 5 min and blocking with 10% Normal Goat Serum for 15 min, sections were stained for nuclei (DRAQ5) and the EC marker CD31 overnight. Images were captured using a PASCAL laser-scanning confocal microscope (Carl Zeiss, 10× objective). Quantification was performed using the IMARIS software and Photoshop (Adobe), ECs were identified by co-localization of nuclei with CD31 staining.
Data is from 2 plugs per animal and is the mean of two measurements.

The next assay concerns murine aortic ring. Put plainly: Mouse aortic ring model of angiogenic sprout formation. Type of assay: cell-based. The note with it: 0.5 μM in medium; sprouts counted after 7 days; murine aortic rings. The procedure:
Aortic ring assay: Thoracic aortas dissected from cervically dislocated 180-200 g male wistar rats (Harlan Laboratories) or 6 week old C57BL/6 mice (Charles River) were sliced into 0.5 mm sections and incubated overnight in serum free OptiMEM (Invitrogen) at 37° C. Aortic rings were embedded in type I collagen (1 mg/ml) in E4 media (Invitrogen) containing either GST, syndecan-2 mutant proteins or peritoneal exudates in 48 well plates. Wells were supplemented with OptiMEM with 1% FBS and 10 ng/ml VEGF (R and D systems, 30 ng/ml for murine rings) and incubated at 37° C., 10% CO2. Angiogenic sprouts from rat and mouse aortas were counted after 4 days and 8 days respectively (Method based on that of Nicosia and Ottinetti (Laboratory Investigation 63:115-122, 1990) and modified in De Rossi et al. (Journal of Genetic Syndromes & Gene Therapy 4, 2013).
The peptide was added to the medium and sprouts were counted after 7 days in culture. Data represents the mean of at least 15 rings and error bars represent the SEM. Significance is indicated on the basis of a non-paired students t test (p***<0.001).

In a further assay the test system is Choroid explants. The assay can be described thus: Choroid explant model of angiogenic sprout formation. Type of assay: cell-based, mouse. The note with it: doses 0.1 μM to 1 μM, counted after 7 days. On the procedure:
18 day old C57BL6 mice were sacrificed by cervical dislocation and eyes were enucleated prior to an incision being made 1 mm below the iris and removal of the iris, cornea lens and retina. The choroid is then removed flattened and cut into 1 mm pieces prior to incubation in serum free OptiMEM o/n at 37° C. Choroid explants are then embedded in a Collagen I matrix containing scrambled or experimental peptides and supplemented with OptiMEM containing 10 ng/ml murine VEGFA. Angiogenic sprouts were counted after 7 days.
The choroid is a vascular bed beneath the retinal pigment epithelium and supplies oxygen and nutrients to the outer retina. The choroid can be readily isolated from the murine eye and when placed in a suitable medium and after 4-6 days in culture vessel sprouting occurs and can be quantified. This assay recapitulates Choroidal neovascularisation, the cause of central vision loss in wet Age Related Macular Degeneration. […] Data is the mean number of sprouts from at least 6 Choroid explants from a total of 8 animals. Error bars represent the SEM and significance was calculated using a students t test p<0.05.

Assay [1] has as its system HUVECs. Put plainly: Capillary network (tubule) formation of HUVECs on growth factor depleted Matrigel. The note with it: 1 μm, FIG. 3B. The format is cell-based, human. On the procedure:
80,000 HUVECs were seeded into 24 well plates coated with 100 μl/well of growth factor depleted Matrigel (BD Sciences) in the presence of the human syndecan-2 peptides scr or hS2pep at the concentrations indicated (scr corresponds to a scrambled control peptide). Tubule formation was monitored by time lapse microscopy using an Olympus IX81 microscope with a controlled environment chamber set at 37° C., 10% CO2. Images were captured every 30 minutes using a Hamamatsu Orca ER digital camera and processed using Cell^M software (Olympus). (A) Phase contrast images of tubules after 6 hours in culture. (B) Branch points were counted on at least four representative images. A branch point is defined at which two or more tubules meet.
To investigate the inhibitory effect of peptides derived from human syndecan-2, 80,000 HUVECs were seeded into 24 well plates coated with 100 ul/well of growth factor depleted Matrigel in the presence of scr or hS2pep. Tubule formation was monitored by time lapse microscopy (FIG. 3A).

The subject of assay [2] is HUVECs. The assay can be described thus: Scratch wound cell migration assay on HUVEC monolayers. The format is cell-based, human. The procedure:
In this assay scratches are made in confluent monolayers of HUVECS and the cells incubated in the presence or absence of different concentrations of the human syndecan-2 peptides. Cell migration is measured by time lapse microscopy using an Olympus IX81 microscope with a controlled environment chamber set at 37° C., 10% CO2. Images were captured every 30 minutes using a Hamamatsu Orca ER digital camera and processed using Cell^M software (Olympus). […]
In one assay, scratches were made in confluent monolayers of HUVECs and the cells incubated in the presence or absence of different concentrations of hS2pep (human syndecan-2 peptide) and scrambled peptides (FIG. 1A).
Scratch wound migration assays: Scratch wound migration assays were performed on confluent monolayers of ECs. Wounds were made using a pipette tip, and fusion proteins were added to the medium and images were captured every 30 minutes for 12 hours by time lapse microscopy using an Olympus IX81 microscope. Percentage wound closure was calculated and individual cells tracked using Image J.

The subject of assay [3] is choroidal neovascularisation. The assay can be described thus: Laser-induced choroidal neovascularisation in vivo. Details: species or system mouse. The conditions noted are these: C57BL mice; 1 μM; 7 days post injury; injected into the eyes. On the procedure:
6 Week old C57BL mice were anaesthetised on day 0 and 3 laser burns were applied to both eyes. On day 3, 1 μl of 4 μM QM107 (hS2pep), PBS or 4 μM scrambled control were injected into both eyes of the animals. On day 7 the choroidal neovascularisation, in response to the laser lesion, were observed by fluorescein angiography. The area of Choroidal neovascularistaion was then calculated by analysis of images using IMAGEJ.
C57BL mice were treated as described above and it is evident from FIG. 11 that around 30% less choroidal neovascularisation occurs in mice treated with 1 μM of QM107 7 days post injury as compared to animals treated with PBS or the scrambled control. N=10 for each condition and significance was calculated using a students t test.

The next assay deals with murine skin ECs. Put plainly: Endothelial cell invasion through Collagen I (transwell). The format is cell-based. The note with it: 1 uM, counted after 24 hours, vs scr. The procedure:
50,000 skin ECs were seeded and cells which had passed through the matrix were counted after 24 hours. Cells were stained with Calcein (5 μM) and cells imaged using an Olympus IX81 inverted microscope and a Hamamatuse Orca ER digital camera. Fluorescent cells are shown in (A) and the % migrated cells compared to the untreated control is shown in B. Cell numbers were counted from four independent images and error bars represent the SEM. Significance was calculated using 1 way ANOVA with Tukey's multiple comparison p<0.0001).
Invasion through the extracellular matrix is another indicator of angiogenesis. Collagen I matrices containing 1 uM of hS2pep and scr were prepared in an […] transwell. 50,000 murine skin ECs were seeded and cells which had passed through the matrix were counted after 24 hours.
Invasion assay: Invasion assays through collagen and Matrigel matrices were performed in 24-well plates with transwell inserts (Millipore; 8 μm pore size, polyester (PET) membrane). […] Invasion was measured after 6 hours after which time gels were removed with a cotton swab, the filter washed in PBS and stained with calcein (Invitrogen) and the number of cells attached to the filter was counted.

For “hS2pep: Peptide derived from human syndecan-2 (SEQ ID NO 6); development name QM107 (PAEEDTNVYTEKHSDSLF; hS2pep peptide derived from human syndecan-2)”, in the assay with Matrigel plugs, the “Haemoglobin content of Matrigel plugs” value was “greatly reduced”. Also, in the assay with murine aortic ring, the Angiogenic sprout formation result is recorded as “inhibited”. The “Formation of angiogenic sprouts” value with Choroid explants was “inhibit the formation of angiogenic sprouts”. Also, in the assay with HUVECs [1], the “Capillary network formation (number of branch points)” value was “inhibited”. For the same substance, in the assay with HUVECs [2] (1 uM, HUVECs, FIG. 1B), the Scratch wound closure result is “greatly reduced”. Also, in the assay on HUVECs [2] (after 4 hours in culture, vs scrambled peptide), the HUVEC cell migration entry is “significantly inhibited”. The “Reduction of choroidal neovascularisation (area) compared to PBS or scrambled control” value in assay [3] is “around 30%”. Further, the “Invasion through collagen I” value in the assay with murine skin ECs is “inhibited”.
